Experimental data: paper PMC10096175, “An In Vitro Antimicrobial, Anticancer and Antioxidant Activity of N–[(2–Arylmethylthio)phenylsulfonyl]cinnamamide Derivatives” (Molecules, 2023)
Converted amounts (≈) assume the structure as drawn.

What was measured:
[1] = tested on: S. aureus ATCC 6538; experiment: MIC determination, reference strain (microdilution); type: cell-based; conditions: Staphylococcus aureus, ATCC6538; S. aureus ATCC 6538; ± SD; Co-trimoxazole as sulfamethoxazole/trimethoprim; read-out: MIC
[2] = tested on: B. subtilis ATCC 6633; experiment: as above; type: cell-based; conditions: Bacillus subtilis, ATCC6633; B. subtilis ATCC 6633; Co-trimoxazole as sulfamethoxazole/trimethoprim; read-out: MIC
[3] = tested on: 24 h biofilm already formed by MRSA strains; experiment: Effect on 24 h biofilm already formed, MRSA; type: cell-based, Staphylococcus aureus; conditions: MRSA12677
[4] = ABTS assay; conditions: ABTS radical scavenging; 10 min, 30 °C
Experimental: The ABTS assay was performed spectrophotometrically. […] ABTS solution with methanol/DMSO (9/1 v/v) was used as a control. After 10 min of incubation at 30 °C in the dark, the absorbance was analyzed at λ = 750 nm by a 96-well microplate reader (Epoch, BioTek System, Santa Clara, CA, USA). Ascorbic acid was used as a standard.
ABTS inhibition was calculated by the following equation:ABTS Inhibition (%) = [Acontrol − Asample)/Acontrol] × 100%
IC50 values of the samples were calculated using program GraFit v. 7.0 (Erithacus Software). The analysis was performed three times, with tree replications in each (n = 9). Statistical analysis was performed with one-way ANOVA with Tuckey’s post-hoc test.

[5] = in vitro; conditions: sheep, defibrinated sheep blood diluted 1:9 v/v with PBS, pH 7
[6] = tested on: Staphylococcus sp. and Enterococcus sp.; experiment: MIC, summary statements on reference Gram-positive cocci; type: cell-based; conditions: Staphylococcus and Enterococcus species, reference Gram-positive cocci (range over strains)
Experimental: Sterile sheep blood defibrinated (GrasoBiotech). Co-trimoxazole (composition sulfamethoxazole 400 mg/trimethoprim 80 mg; WZF Polfa Poland). Ketoconazole (WZF Polfa Poland). Bacteria: Enterococcus hirae ATCC 10541 and Enterococcus faecalis ATCC 51299, Staphylococcus epidermidis ATCC 14990, Staphylococcus aureus ATCC 6538, clinical strains Staphylococcus aureus MRSA, clinical strains Staphylococcus sp. (MRCNS), clinical strain Staphylococcus epidermidis MRSE, clinical strain Enterococcus sp., Corynebacterium diphtheriae ZMF, Bacillus subtilis ATCC 6633, Escherichia coli ATCC 8739, Candida albicans ATCC 10231. Brain-heart infusion broth (BHI, Becton Dickinson) for Enterococcus hirae ATCC 10541 and Enterococcus faecalis ATCC 51299, BHI supplement with 10% bovine serum for Bacillus subtilis, Corynebacterium diphtheriae ZMF, Staphylococcus epidermidis ATCC 14990, Staphylococcus aureus ATCC 6538, clinical strains Staphylococcus aureus MRSA, clinical strains Staphylococcus sp. (CNS), clinical strain Staphylococcus epidermidis MRSE grew in Mueller-Hinton broth (MH cation-adjusted, Becton Dickinson) in an aerobic atmosphere at 37 °C for 48 h, in an aerobic atmosphere at 37 °C for 72 h. Candida albicans grew in Sabourauda broth (Sb, Becton Dickinson), in an aerobic atmosphere at 37 °C for 72 h. After determination of the bacterial viability, BHI blood agar plates, MH agar plates, and Sb agar plates were used.
The MIC determination for the reference and clinical strains was performed based on the methodology described by Kula et al.. The dry test samples were dissolved in dimethyl sulfoxide (DMSO) and diluted in water, resulting in a finale concentration of about 500 µg/mL. These solutions were diluted and added to the first well of each microtiter line. Dilution in geometric progression was done by transferring the mixture/dilution (100 μL) from the first to the twelfth well. An aliquot (100 μL) was discarded from the twelfth well. The final concentration of the samples used in the antimicrobial activity assay ranged from 125 to 0.006 µg/mL. Co-trimoxazole (for bacteria), with the composition sulfamethoxazole 400 mg/trimethoprim 80 mg was used as a reference compound in the concentration range of 20 000/4000 to 1/0.2 µg/mL. Ketoconazole (for fungi) was used as a reference compound in the concentration range of 125 to 0.006 µg/mL. Tests were incubated in adequate conditions described by Kula et al.. Diluent concentration had no effect on the activity of the tested compounds. All experiments were carried out three times.

[7] = tested on: cancer cells (HeLa, SKOV-3, MCF-7); experiment: MTT assay, summary statements on the cancer cells; type: cell-based; conditions: Homo sapiens, cell line not specified
[8] = tested on: biofilm formation by MRSA clinical strains; experiment: Inhibition of biofilm formation (crystal violet), MRSA; type: cell-based, Staphylococcus aureus; conditions: 2 × MIC

MIC [1] [µg/mL] | MIC [2] [µg/mL] | IC50 ABTS [4] [µg/mL] | MIC [6] [µg/mL] | IC50 ([7]; MTT) [µg/mL] | IC50 ([7]; µg/mL bound converted) [µM] | Structure (SMILES) | Inhibition of biofilm already formed, in relation to the control ([3]; 2 × MIC and 4 × MIC) | hemolysis at 24 h, 31.25 µg/mL [5] [%] | Inhibition of biofilm formation compared with the control ([8]; MRSA13318) [%] | Inhibition of biofilm formation compared with the control ([8]; MRSA21804) [%] | Inhibition of biofilm already formed, in relation to the control ([3]; 2 × MIC)
2 ± 0.58 (≈ 3.6 µM) | 62.5 ± 0.29 (≈ 112 µM) | 697.70 ± 0.43 (≈ 1250 µM) | – | – | – | COc1ccc(/C=C/C(=O)NS(=O)(=O)c2cc(C)c(Cl)cc2SCc2cccc3ccccc23)cc1F [Compound 16e, (E)–N–{4–Chloro–5–methyl–2–[(naphthalen–1–yl)methylthio]phenylsulfonyl}–3–(3–fluoro–4–methoxyphenyl)acrylamide] | about 53% | 12 to 20 | – | – | –
1 (≈ 1.84 µM) | 62.5 ± 0.29 (≈ 115 µM) | 627.81 ± 2.29 (≈ 1160 µM) | 1 to 2 (≈ 1.84 to 3.69 µM) | < 10 | ≤ 20 | Cc1cc(S(=O)(=O)NC(=O)/C=C/c2ccc(Cl)cc2)c(SCc2cccc3ccccc23)cc1Cl [Compound 16d, (E)–N–{4–Chloro–5–methyl–2–[(naphthalen–1–yl)methylthio]phenylsulfonyl}–3–(4–chlorophenyl)acrylamide] | – | – | – | – | –
1 ± 0.29 (≈ 1.75 µM) | 62.5 ± 0.29 (≈ 109 µM) | 496.63 ± 0.48 (≈ 870 µM) | 1 to 2 (≈ 1.75 to 3.5 µM) | – | – | Cc1cc(S(=O)(=O)NC(=O)/C=C/c2ccc(Cl)cc2)c(SCc2cc3c(cc2Cl)OCO3)cc1Cl [Compound 17c, (E)–N–{4–Chloro–2–[(6–chlorobenzo[d][1,3]dioxol–5–yl)methylthio]–5–methylphenylsulfonyl}–3–(4–chlorophenyl)acrylamide] | – | 12 to 20 | 98 | 61 | about 40%
